# Measured values published in PubChem BioAssay AID1919016 (Molecular Pharmacology Branch, DTP, NCI, 2023).
# pIC50: −log10 of the molar value.
# System: NCI-H196 complex spheroid growth, percent test/control
# Experiment: Anticancer human tumor NCI-H196 cell line growth inhibition [AhR];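 note: seven days of drug exposure starting three days after plating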;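 for viability, T/C: 100% = DMSO vehicle control wells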
# Conditions: for pIC50: curve of first compound; for viability, T/C: stronger effect = lower value
# Procedure, shortened: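 Spheroids combined tumor cells with HUVEC endothelial cells and human MSCs as stroma. AhR antagonists were paired with standard or investigational drugs, each dosed in half-log steps down from near clinical Cmax, or from 10 microM where Cmax was unknown.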
# [1] = second compound 0.1 µM, first compound 0.0316 µM
# [2] = second compound 0.1 µM, first compound 0.1 µM
# [3] = second compound 0.1 µM, first compound 0.316 µM
# [4] = second compound 0.1 µM, first compound 1 µM
# [5] = second compound 0.316 µM, first compound 0.0316 µM
# [6] = second compound 0.316 µM, first compound 0.1 µM
# [7] = second compound 0.316 µM, first compound 0.316 µM
# [8] = second compound 0.316 µM, first compound 1 µM
# [9] = second compound 1 µM, first compound 0.0316 µM
# [10] = second compound 1 µM, first compound 0.1 µM
# [11] = second compound 1 µM, first compound 0.316 µM
# [12] = second compound 1 µM, first compound 1 µM
# [13] = second compound 3.16 µM, first compound 0.0316 µM
# [14] = second compound 3.16 µM, first compound 0.1 µM
# [15] = second compound 3.16 µM, first compound 0.316 µM
# [16] = second compound 3.16 µM, first compound 1 µM
# [17] = second compound 10 µM, first compound 0.0316 µM
# [18] = second compound 10 µM, first compound 0.1 µM
# [19] = second compound 10 µM, first compound 0.316 µM
# [20] = second compound 10 µM, first compound 1 µM
# [21] = second compound 0.1 µM, first compound 3.16 µM
# [22] = second compound 0.1 µM, first compound 10 µM
# [23] = second compound 0.316 µM, first compound 3.16 µM
# [24] = second compound 0.316 µM, first compound 10 µM
# [25] = second compound 1 µM, first compound 3.16 µM
# [26] = second compound 1 µM, first compound 10 µM
# [27] = second compound 3.16 µM, first compound 3.16 µM
# [28] = second compound 3.16 µM, first compound 10 µM
# [29] = second compound 10 µM, first compound 3.16 µM
# [30] = second compound 10 µM, first compound 10 µM
pIC50 (second compound 0.1 µM),pIC50 (second compound 0.316 µM),pIC50 (second compound 1 µM),pIC50 (second compound 3.16 µM),pIC50 (second compound 10 µM),SMILES,"viability, T/C [1] [%]","viability, T/C [2] [%]","viability, T/C [3] [%]","viability, T/C [4] [%]","viability, T/C [5] [%]","viability, T/C [6] [%]","viability, T/C [7] [%]","viability, T/C [8] [%]","viability, T/C [9] [%]","viability, T/C [10] [%]","viability, T/C [11] [%]","viability, T/C [12] [%]","viability, T/C [13] [%]","viability, T/C [14] [%]","viability, T/C [15] [%]",other results
< 6.00,< 6.00,< 6.00,< 6.00,< 6.00,CC1COCCN1c1cc(-c2ccnn2C)c2ccnc(-c3ccn[nH]3)c2n1 (stereo not given) + CC(CO)NC(=O)c1cc(-c2ccc(Cl)cc2)nn(-c2cnn(C)c2)c1=O,101,79.3,72.2,61.1,97.9,78.6,66.3,68.5,101,90.8,77.4,71,98,82.4,80,"viability, T/C (second compound 0.1 µM, first compound 0.00316 µM): 104%; viability, T/C (second compound 0.1 µM, first compound 0.01 µM): 109%; viability, T/C (second compound 0.316 µM, first compound 0.00316 µM): 105%; viability, T/C (second compound 0.316 µM, first compound 0.01 µM): 98.9%; viability, T/C (second compound 1 µM, first compound 0.00316 µM): 108%; viability, T/C (second compound 1 µM, first compound 0.01 µM): 104%; viability, T/C (second compound 3.16 µM, first compound 0.00316 µM): 111%; viability, T/C (second compound 3.16 µM, first compound 0.01 µM): 102%; viability, T/C [16]: 66.5%; viability, T/C (second compound 10 µM, first compound 0.00316 µM): 103%; viability, T/C (second compound 10 µM, first compound 0.01 µM): 98.5%; viability, T/C [17]: 107%; viability, T/C [18]: 89.4%; viability, T/C [19]: 74.2%; viability, T/C [20]: 79.8%"
< 5.00,< 5.00,< 5.00,< 5.00,< 5.00,COc1ccc([C@@H](O)c2cc(-c3ncnc4cc(N5CCOCC5)ccc34)c(F)cc2Cl)nn1 + Cc1ccccc1N=Nc1ccc(NC(=O)c2ccnn2C)c(C)c1,97.4,92.5,96,81.8,95.3,102,90,78.3,85.7,88,88.6,89.3,97.3,96.8,86.8,"viability, T/C [21]: 72.8%; viability, T/C [22]: 65.4%; viability, T/C [23]: 68.9%; viability, T/C [24]: 68%; viability, T/C [25]: 72.6%; viability, T/C [26]: 66.6%; viability, T/C [16]: 77.1%; viability, T/C [27]: 74.6%; viability, T/C [28]: 65.1%; viability, T/C [17]: 88.1%; viability, T/C [18]: 83.8%; viability, T/C [19]: 79.4%; viability, T/C [20]: 73.1%; viability, T/C [29]: 76.5%; viability, T/C [30]: 60.3%"
< 5.00,< 5.00,< 5.00,< 5.00,< 5.00,COc1cc(C2c3cc4c(cc3C(OC3OC5COC(C)OC5C(O)C3O)C3COC(=O)C23)OCO4)cc(OC)c1O (stereo not given) + Cc1ccccc1N=Nc1ccc(NC(=O)c2ccnn2C)c(C)c1,97.3,93.5,87.4,86.2,92.1,95,96.8,89.8,93.5,94.6,93.5,92.1,89,94.7,91.4,"viability, T/C [21]: 87.9%; viability, T/C [22]: 76.8%; viability, T/C [23]: 91.2%; viability, T/C [24]: 75.6%; viability, T/C [25]: 100%; viability, T/C [26]: 74.3%; viability, T/C [16]: 79.5%; viability, T/C [27]: 87.1%; viability, T/C [28]: 75.3%; viability, T/C [17]: 85.7%; viability, T/C [18]: 84.3%; viability, T/C [19]: 89.3%; viability, T/C [20]: 93%; viability, T/C [29]: 88%; viability, T/C [30]: 78.9%"
